Reference: patent publication US6410572B1 (priority 2000, dated 2002)

Columns and labels:
Botrytis cinerea = assay: Activity against Botrytis cinerea on bell peppers (fruit disks, protective spray); format: in vivo; settings: green bell pepper disks, 4 days at 18° C.
Protocol: The active ingredients, separately or together, are formulated as a 10% emulsion in a mixture of 63% by weight of cyclohexanone and 27% by weight of emulsifier, and diluted with water to the desired concentration.
Evaluation is carried out by determining the infected leaf areas in percent. These percentages are converted into efficacies. The efficacy (W) is calculated as follows using Abbot's formula: […]
α corresponds to the fungal infection of the treated plants in % and
β corresponds to the fungal infection of the untreated (control) plants in %
An efficacy of 0 means that the infection level of the treated plants corresponds to that of the untreated control plants; an efficacy of 100 means that the treated plants were not infected.
The expected efficacies of the mixtures of the active ingredients were determined using Colby's formula [R. S. Colby, Weeds 15, 20-22 (1967)] and compared with the observed efficacies.
Colby's formula: E=x+y−x·y/100
Disks of green bell peppers were sprayed to runoff point with an aqueous preparation of active ingredient which had been prepared from a stock solution comprising 10% of active ingredient, 63% of cyclohexanone and 27% of emulsifier. 2 hours after the spray coating had dried on, the fruit disks were inoculated with a spore suspension of Botrytis cinerea containing 1.7×10^6 spores per ml of a 2% strength Biomalz solution. The inoculated fruit disks were subsequently incubated in humid chambers at 18° C. for 4 days. The Botrytis infection on the diseased fruit disks was then evaluated visually.

Phytophthora infestans = format: in vivo; settings: 0.8 ppm active ingredient in the spray liquor; tomato leaves; after 6 days at 16-18° C.
[1] = 12.5 ppm active ingredient in the spray liquor
[2] = 50 ppm active ingredient in the spray liquor

Compound	Efficacy in % of the untreated control (Botrytis cinerea; [1])	Efficacy in % of the untreated control (Botrytis cinerea; [2])	Efficacy in % of the untreated control (Phytophthora infestans)
N#Cc1c(Cl)c(Cl)c(Cl)c(C#N)c1Cl [Compound II, Tetrachloroisophthalonitrile, reference compound]	0%	0%	0%
O=C(Nc1ccccc1-c1ccc(Cl)cc1)c1cccnc1Cl [Compound I.2]	–	85%	0%
O=C(Nc1ccccc1-c1ccc(F)cc1)c1cccnc1Cl [Compound I.1]	20%	–	0%
